Measured values reported in PubChem BioAssay AID2060328 (Molecular Pharmacology Branch, DTP, NCI, 2025).
Several values for one entry are separate records, joined by “and”; a condition that tells them apart may be missing. Equal values may be shown once.

Tested on: MDA-MB-231 multicell spheroids, viability (%T/C)
Assay: Anticancer human tumor MDA-MB-231 cell line growth inhibition [IpAb];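 also: viability read after seven days of drug exposure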;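 as to viability, T/C: 100% = DMSO vehicle control viability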
Conditions: for viability, T/C: stronger effect = lower value
Method in brief: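 Combinations with ipatasertib or abemaciclib were tested on tumour spheroids holding HUVEC (25%) and MSC (15%) alongside 60% malignant cells. Top concentration was at or near clinical Cmax (10 microM if undefined), descending in half-log steps.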

[1] = curve of first compound, second compound 0.01 µM
[2] = curve of first compound, second compound 0.0316 µM
[3] = curve of first compound, second compound 0.1 µM
[4] = curve of first compound, second compound 0.316 µM
[5] = curve of first compound, second compound 1 µM
[6] = second compound 0.01 µM, first compound 0.00949 µM
[7] = second compound 0.01 µM, first compound 0.03 µM
[8] = second compound 0.01 µM, first compound 0.0949 µM
[9] = second compound 0.01 µM, first compound 0.3 µM
[10] = second compound 0.0316 µM, first compound 0.00949 µM
[11] = second compound 0.0316 µM, first compound 0.03 µM
[12] = second compound 0.0316 µM, first compound 0.0949 µM
[13] = second compound 0.0316 µM, first compound 0.3 µM
[14] = second compound 0.1 µM, first compound 0.00949 µM
[15] = second compound 0.1 µM, first compound 0.03 µM
[16] = second compound 0.1 µM, first compound 0.0949 µM
[17] = second compound 0.1 µM, first compound 0.3 µM
[18] = second compound 0.316 µM, first compound 0.00949 µM
[19] = second compound 0.316 µM, first compound 0.03 µM
[20] = second compound 0.316 µM, first compound 0.0949 µM
[21] = second compound 0.316 µM, first compound 0.3 µM
[22] = second compound 1 µM, first compound 0.00949 µM
[23] = second compound 1 µM, first compound 0.03 µM
[24] = second compound 1 µM, first compound 0.0949 µM
[25] = second compound 1 µM, first compound 0.3 µM
[26] = curve of first compound, second compound 3.16 µM
[27] = curve of first compound, second compound 10 µM
[28] = second compound 0.1 µM, first compound 0.0316 µM
[29] = second compound 0.1 µM, first compound 0.1 µM
[30] = second compound 0.1 µM, first compound 0.316 µM
[31] = second compound 0.1 µM, first compound 1 µM
[32] = second compound 0.1 µM, first compound 3.16 µM
[33] = second compound 0.1 µM, first compound 10 µM
[34] = second compound 0.316 µM, first compound 0.0316 µM
[35] = second compound 0.316 µM, first compound 0.1 µM
[36] = second compound 0.316 µM, first compound 0.316 µM
[37] = second compound 0.316 µM, first compound 1 µM
[38] = second compound 0.316 µM, first compound 3.16 µM
[39] = second compound 0.316 µM, first compound 10 µM
[40] = second compound 1 µM, first compound 0.0316 µM
[41] = second compound 1 µM, first compound 0.1 µM
[42] = second compound 1 µM, first compound 0.316 µM
[43] = second compound 1 µM, first compound 1 µM
[44] = second compound 1 µM, first compound 3.16 µM
[45] = second compound 1 µM, first compound 10 µM
[46] = second compound 3.16 µM, first compound 0.0316 µM
[47] = second compound 3.16 µM, first compound 0.1 µM
[48] = second compound 3.16 µM, first compound 0.316 µM
[49] = second compound 3.16 µM, first compound 1 µM
[50] = second compound 3.16 µM, first compound 3.16 µM
[51] = second compound 3.16 µM, first compound 10 µM
[52] = second compound 10 µM, first compound 0.0316 µM
[53] = second compound 10 µM, first compound 0.1 µM
[54] = second compound 10 µM, first compound 0.316 µM
[55] = second compound 10 µM, first compound 1 µM
[56] = second compound 10 µM, first compound 3.16 µM
[57] = second compound 10 µM, first compound 10 µM

CC(=O)c1c(C)c2cnc(Nc3ccc(N4CCNCC4)cn3)nc2n(C2CCCC2)c1=O + CCN1CCN(Cc2ccc(Nc3ncc(F)c(-c4cc(F)c5nc(C)n(C(C)C)c5c4)n3)nc2)CC1 was tested, and the IC50 [1] was 0.0594 µM, the IC50 [2] was 0.0443 µM and the IC50 [3] was 0.0181 µM. It also gave an IC50 [4] of 0.00119 µM, an IC50 [5] greater than 0.3 µM and a viability, T/C (second compound 0.01 µM, first compound 0.000949 µM) of 87.9%. For the same compound, the viability, T/C (second compound 0.01 µM, first compound 0.003 µM) was 82.1%, the viability, T/C [6] was 74.1% and the viability, T/C [7] was 55.2%. For the same compound, the viability, T/C [8] was 46.3%, the viability, T/C [9] was 43.1% and the viability, T/C (second compound 0.0316 µM, first compound 0.000949 µM) was 71.8%. The viability, T/C (second compound 0.0316 µM, first compound 0.003 µM) was 71.5%, the viability, T/C [10] was 66.8% and the viability, T/C [11] was 52.8%. For the same compound, the viability, T/C [12] was 44.4%, the viability, T/C [13] was 40.4% and the viability, T/C (second compound 0.1 µM, first compound 0.000949 µM) was 60%. For the same compound, the viability, T/C (second compound 0.1 µM, first compound 0.003 µM) was 59.2%, the viability, T/C [14] was 54% and the viability, T/C [15] was 47.1%. The viability, T/C [16] was 41%, the viability, T/C [17] was 41.8% and the viability, T/C (second compound 0.316 µM, first compound 0.000949 µM) was 49.2%. The viability, T/C (second compound 0.316 µM, first compound 0.003 µM) was 50.9%, the viability, T/C [18] was 46.2% and the viability, T/C [19] was 44.7%. It also gave a viability, T/C [20] of 44%, a viability, T/C [21] of 42% and a viability, T/C (second compound 1 µM, first compound 0.000949 µM) of 55.4%. The viability, T/C (second compound 1 µM, first compound 0.003 µM) was 58.5%, the viability, T/C [22] was 53.8% and the viability, T/C [23] was 53.4%. The viability, T/C [24] was 52.8% and the viability, T/C [25] was 48.9%.

For CC(C)NCC(C(=O)N1CCN(c2ncnc3c2C(C)CC3O)CC1)c1ccc(Cl)cc1 (stereo not drawn), the viability, T/C (compound 0.1 µM) was 95.4% [middle of 13 runs], the viability, T/C (compound 0.316 µM) was 84.7% [middle of 13 runs] and the viability, T/C (compound 1 µM) was 70.5% [middle of 13 runs]. The viability, T/C (compound 3.16 µM) was 54.9% [middle of 13 runs], the viability, T/C (compound 10 µM) was 39.5% [middle of 13 runs] and the IC50 (compound alone, run of 06/01/2021) was 4.43 µM [middle of 13 runs].

For Cn1cnc2c(F)c(Nc3ccc(Br)cc3Cl)c(C(=O)NOCCO)cc21 + CCN1CCN(Cc2ccc(Nc3ncc(F)c(-c4cc(F)c5nc(C)n(C(C)C)c5c4)n3)nc2)CC1, the IC50 [1] was 0.0341 µM, the IC50 [2] was less than 0.00949 µM and the IC50 [3] was less than 0.00949 µM. The IC50 [4] was less than 0.00949 µM, the IC50 [5] was less than 0.00949 µM and the viability, T/C [6] was 54.5%. The viability, T/C [7] was 53.4%, the viability, T/C [8] was 42.8% and the viability, T/C [9] was 36.9%. For the same compound, the viability, T/C (second compound 0.01 µM, first compound 0.949 µM) was 32.3%, the viability, T/C (second compound 0.01 µM, first compound 3 µM) was 20.4% and the viability, T/C [10] was 46.3%. It also gave a viability, T/C [11] of 40.9%, a viability, T/C [12] of 35.9% and a viability, T/C [13] of 30.9%. It also gave a viability, T/C (second compound 0.0316 µM, first compound 0.949 µM) of 25.5%, a viability, T/C (second compound 0.0316 µM, first compound 3 µM) of 13.3% and a viability, T/C [14] of 36.9%. It also gave a viability, T/C [15] of 30.1%, a viability, T/C [16] of 29.6% and a viability, T/C [17] of 25.4%. The viability, T/C (second compound 0.1 µM, first compound 0.949 µM) was 19.2%, the viability, T/C (second compound 0.1 µM, first compound 3 µM) was 12.2% and the viability, T/C [18] was 28.2%. For the same compound, the viability, T/C [19] was 27%, the viability, T/C [20] was 22% and the viability, T/C [21] was 19.2%. The viability, T/C (second compound 0.316 µM, first compound 0.949 µM) was 16.1%, the viability, T/C (second compound 0.316 µM, first compound 3 µM) was 9.49% and the viability, T/C [22] was 28.7%. It also gave a viability, T/C [23] of 25.3%, a viability, T/C [24] of 20.1% and a viability, T/C [25] of 17.4%. It also gave a viability, T/C (second compound 1 µM, first compound 0.949 µM) of 14.9% and a viability, T/C (second compound 1 µM, first compound 3 µM) of 10.7%.

In the case of Cn1ncc(Cl)c1-c1cc(C(=O)NC(CN)Cc2cccc(F)c2)sc1Cl (stereo not drawn), the viability, T/C (compound 0.0316 µM) is reported as 100% and 101%, the viability, T/C (compound 0.1 µM) is reported as 89.6% and 87.9% and the viability, T/C (compound 0.316 µM) is reported as 75.6%. The viability, T/C (compound 1 µM) was 57.4% and 57.5%, the viability, T/C (compound 3.16 µM) was 37.4% and 30% and the viability, T/C (compound 10 µM) was 0.23% and 0.17%. The IC50 (curve of compound) was 1.52 µM and 1.33 µM.

C=CC(=O)N1CCN(c2nc(=O)n(-c3c(C)ccnc3C(C)C)c3nc(-c4c(O)cccc4F)c(F)cc23)C(C)C1 (stereo not drawn) + CC(C)NCC(C(=O)N1CCN(c2ncnc3c2C(C)CC3O)CC1)c1ccc(Cl)cc1 showed an IC50 [3] greater than 10 µM, an IC50 [4] greater than 10 µM and an IC50 [5] greater than 10 µM. For the same compound, the IC50 [26] was greater than 10 µM, the IC50 [27] was less than 0.0316 µM and the viability, T/C [28] was 111%. For the same compound, the viability, T/C [29] was 113%, the viability, T/C [30] was 116% and the viability, T/C [31] was 129%. For the same compound, the viability, T/C [32] was 120%, the viability, T/C [33] was 78.3% and the viability, T/C [34] was 96.1%. For the same compound, the viability, T/C [35] was 97%, the viability, T/C [36] was 105% and the viability, T/C [37] was 111%. For the same compound, the viability, T/C [38] was 95.4%, the viability, T/C [39] was 64.4% and the viability, T/C [40] was 81.9%. For the same compound, the viability, T/C [41] was 79.8%, the viability, T/C [42] was 82.3% and the viability, T/C [43] was 86%. The viability, T/C [44] was 71%, the viability, T/C [45] was 52.6% and the viability, T/C [46] was 57.2%. The viability, T/C [47] was 68.6%, the viability, T/C [48] was 67% and the viability, T/C [49] was 67.5%. The viability, T/C [50] was 62.1%, the viability, T/C [51] was 44.5% and the viability, T/C [52] was 42.5%. For the same compound, the viability, T/C [53] was 45.9%, the viability, T/C [54] was 44.4% and the viability, T/C [55] was 42.7%. The viability, T/C [56] was 41.6% and the viability, T/C [57] was 32.1%.

Cn1nccc1Nc1nccc(-c2ccn(C(CO)c3ccc(Cl)c(F)c3)c(=O)c2)n1 (stereo not drawn) + CC(C)NCC(C(=O)N1CCN(c2ncnc3c2C(C)CC3O)CC1)c1ccc(Cl)cc1 was tested, and the IC50 [3] was 0.259 µM, the IC50 [4] was 0.0459 µM and the IC50 [5] was less than 0.0316 µM. The IC50 [26] was less than 0.0316 µM, the IC50 [27] was less than 0.0316 µM and the viability, T/C [28] was 64.3%. The viability, T/C [29] was 53.5%, the viability, T/C [30] was 48.7% and the viability, T/C [31] was 43.1%. It also gave a viability, T/C [32] of 25.2%, a viability, T/C [33] of 18.7% and a viability, T/C [34] of 52.8%. It also gave a viability, T/C [35] of 43.8%, a viability, T/C [36] of 38.1% and a viability, T/C [37] of 29.3%. For the same compound, the viability, T/C [38] was 23.5%, the viability, T/C [39] was 18% and the viability, T/C [40] was 38.7%. The viability, T/C [41] was 36.1%, the viability, T/C [42] was 32.2% and the viability, T/C [43] was 27.8%. For the same compound, the viability, T/C [44] was 16.3%, the viability, T/C [45] was 15.3% and the viability, T/C [46] was 34.3%. For the same compound, the viability, T/C [47] was 28.7%, the viability, T/C [48] was 27.1% and the viability, T/C [49] was 21.5%. The viability, T/C [50] was 12.9%, the viability, T/C [51] was 10.4% and the viability, T/C [52] was 24.2%. It also gave a viability, T/C [53] of 22.8%, a viability, T/C [54] of 16.7% and a viability, T/C [55] of 14.9%. It also gave a viability, T/C [56] of 9% and a viability, T/C [57] of 6.42%.
